In BigSolDB 2.1:

NNC(=O)c1ccccc1
solubility (mole fraction)
Conditions | 283.15 K | 288.15 K | 293.15 K | 298.15 K | 303.15 K | 308.15 K | 313.15 K | 318.15 K | 323.15 K
in ethanol | 0.0137 | 0.0169 | 0.0203 | 0.0283 | 0.0376 | 0.0481 | 0.0605 | 0.0805 | 0.101
in isopropanol | 0.0112 | 0.0135 | 0.0173 | 0.0231 | 0.0299 | 0.0384 | 0.0489 | 0.0623 | 0.0761
in methanol | 0.0363 | 0.0425 | 0.0515 | 0.0605 | 0.0727 | 0.0843 | 0.103 | 0.118 | 0.137
in n-butanol | 0.0087 | 0.0107 | 0.0132 | 0.0185 | 0.0244 | 0.0321 | 0.041 | 0.0519 | 0.0665
in n-propanol | 0.0129 | 0.0155 | 0.019 | 0.026 | 0.0319 | 0.0421 | 0.0536 | 0.068 | 0.0834
in water | 0.00505 | 0.00662 | 0.00868 | 0.0116 | 0.0154 | 0.0203 | 0.0267 | 0.0348 | 0.0453

NNC(=O)c1ccccc1O
solubility (mole fraction)
Conditions | 283.15 K | 288.15 K | 293.15 K | 298.15 K | 303.15 K | 308.15 K | 313.15 K | 318.15 K | 323.15 K
in ethanol | 0.0095 | 0.0115 | 0.0132 | 0.0161 | 0.0189 | 0.0224 | 0.0278 | 0.0316 | 0.0379
in isopropanol | 0.00719 | 0.00841 | 0.0102 | 0.0124 | 0.015 | 0.0181 | 0.0219 | 0.0261 | 0.0316
in methanol | 0.0122 | 0.015 | 0.017 | 0.0198 | 0.0243 | 0.0278 | 0.0326 | 0.0382 | 0.0462
in n-butanol | 0.00861 | 0.00985 | 0.0115 | 0.013 | 0.0148 | 0.0165 | 0.0188 | 0.0216 | 0.025
in n-propanol | 0.00748 | 0.0097 | 0.0112 | 0.0138 | 0.016 | 0.0189 | 0.024 | 0.0283 | 0.0334
in water | 0.0122 | 0.0146 | 0.0182 | 0.0223 | 0.028 | 0.0355 | 0.0435 | 0.0541 | 0.0665
